# Literature values in publication PMC5594551, “Heterogeneous drug penetrance of veliparib and carboplatin measured in triple negative breast tumors” (Breast Cancer Research : BCR, 2017).
# Legend:
# HCC70 = details: ref [24]; cited from earlier work
# MDA-MB-436 = details: MDA-MB-436, BRCA1-mutated; ref [24]; cited from earlier work
smiles,measurement,setting,value
O=C(c1cc(Cc2n[nH]c(=O)c3ccccc23)ccc1F)N1CCN(C(=O)C2CC2)CC1 [olaparib],Sensitivity in vitro,HCC70,sensitive
same,Sensitivity in vitro,MDA-MB-436,sensitivity
